According to ChEMBL document CHEMBL3875177, “Design, synthesis and biological evaluation of [1,2,3]triazolo[4,5-d]pyrimidine derivatives possessing a hydrazone moiety as antiproliferative agents” (Eur J Med Chem, 2016):
Active and inactive are the calls of the source. No cut-off for these calls is given here.

Assays:
[1] = system: MGC-803; experiment: Induction of apoptosis in human MGC803 cells assessed as decrease in Bcl2 protein expression at 1 to 4 uM after 24 hrs by Western blot method; format: functional, cell-based
[2] = system: MGC-803; experiment: Induction of apoptosis in human MGC803 cells assessed as decrease in Mcl1 protein expression at 1 to 4 uM after 24 hrs by Western blot method; format: functional, cell-based
[3] = system: MGC-803; experiment: Induction of apoptosis in human MGC803 cells assessed as cell rounding at 1 to 4 uM after 24 hrs by Hoechst 33258 staining based fluorescence microscopic method; format: functional
[4] = Inhibition of colony formation in human MGC803 cells assessed as reduction in foci formation at 0.8 uM after 10 days by crystal violet staining based assay relative to control; format: functional; settings: MGC-803, 240 h
[5] = system: MGC-803; experiment: Induction of mitochondrial membrane potential loss in human MGC803 cells after 24 hrs by JC-1 staining based flow cytometry; format: functional, cell-based
[6] = Antiproliferative activity against human GES-1 cells after 72 hrs by MTT assay; format: cell-based; settings: GES1, 72 h
[7] = system: MGC-803; experiment: Induction of apoptosis in human MGC803 cells assessed as increase in Bax protein expression after 24 hrs by Western blot method; format: functional, cell-based
[8] = system: MGC-803; experiment: Induction of apoptosis in human MGC803 cells at 4 uM after 24 hrs by Annexin-V FITC/propidium iodide staining based flow cytometry (reference value: 1.8%); format: functional
[9] = Antiproliferative activity against human EC109 cells after 72 hrs by MTT assay; format: functional, cell-based; settings: ECa-109, 72 h
[10] = system: MGC-803; experiment: Induction of apoptosis in human MGC803 cells assessed as chromatin shrinkage at 1 to 4 uM after 24 hrs by Hoechst 33258 staining based fluorescence microscopic method; format: functional, cell-based
[11] = system: MGC-803; experiment: Induction of apoptosis in human MGC803 cells assessed as increase in Bak protein expression after 24 hrs by Western blot method; format: functional, cell-based
[12] = system: MGC-803; experiment: Induction of apoptosis in human MGC803 cells assessed as increase in caspase-9 protein expression at 1 to 4 uM after 24 hrs by Western blot method; format: functional, cell-based
[13] = system: MGC-803; experiment: Induction of apoptosis in human MGC803 cells at 2 uM after 24 hrs by Annexin-V FITC/propidium iodide staining based flow cytometry (reference value: 1.8%); format: functional
[14] = system: MGC-803; experiment: Induction of apoptosis in human MGC803 cells after 24 hrs by Annexin-V FITC/propidium iodide staining based flow cytometry; format: functional, cell-based
[15] = Antiproliferative activity against human MCF7 cells after 72 hrs by MTT assay; format: functional, cell-based; settings: MCF7, 72 h
[16] = system: MGC-803; experiment: Induction of apoptosis in human MGC803 cells assessed as increase in PUMA protein expression after 24 hrs by Western blot method; format: functional, cell-based
[17] = system: MGC-803; experiment: Induction of apoptosis in human MGC803 cells at 1 uM after 24 hrs by Annexin-V FITC/propidium iodide staining based flow cytometry (reference value: 1.8%); format: functional
[18] = target: Lysine-specific histone demethylase 1A (Homo sapiens) (UniProt O60341); experiment: Inhibition of LSD1 (unknown origin) at 10 uM relative to control
[19] = system: MGC-803; experiment: Induction of apoptosis in human MGC803 cells assessed as formation of apoptotic bodies at 1 to 4 uM after 24 hrs by Hoechst 33258 staining based fluorescence microscopic method; format: functional, cell-based
[20] = system: MGC-803; experiment: Induction of mitochondrial membrane potential loss in human MGC803 cells at 4 uM after 24 hrs by JC-1 staining based flow cytometry (reference value: 49.8%); format: functional
[21] = system: MGC-803; experiment: Induction of apoptosis in human MGC803 cells assessed as increase in caspase-3 protein expression at 1 to 4 uM after 24 hrs by Western blot method; format: functional, cell-based
[22] = (§1) Antiproliferative activity against human MGC803 cells after 72 hrs by MTT assay; format: functional, cell-based; settings: MGC-803, 72 h
[23] = system: MGC-803; experiment: as §1; format: functional, cell-based

Row | Compound | IC50 [9] [µM] | IC50 [15] [µM] | IC50 [22] [µM] | other results
1 | C/C(=N\Nc1nc(SCc2ccccc2)nc2c1nnn2Cc1ccccc1)c1ccccc1O | 1.77 | 0.95 | 0.85 | Activity [1]: Active; Activity [2]: Active; Activity [3]: Active; inhibition at 0.8 µM [4]: 83%; Activity [5]: Dose-dependent effect; IC50 [6]: 56.2 µM; Activity [7]: Dose-dependent effect; Activity [8]: <=53.9%; Activity [10]: Active; Activity [11]: Dose-dependent effect; Activity [12]: Active; Activity [13]: <=24.8%; Activity [14]: Dose-dependent effect; Activity [16]: Dose-dependent effect; Activity [17]: <=8.7%; inhibition [18]: 26.8%; Activity [19]: Active; Activity [20]: <=90.4%; Activity [21]: Active; Activity [23]: Dose-dependent effect
2 | CCCSc1nc(N/N=C/c2ccccc2F)c2nnn(Cc3ccccc3)c2n1 | > 64 | > 64 | > 64 | 
3 | CCCSc1nc(N/N=C/c2ccc(Cl)cc2)c2nnn(Cc3ccccc3)c2n1 | > 64 | > 64 | > 64 | 
4 | CCCSc1nc(N/N=C(\C)c2ccccc2O)c2nnn(Cc3ccc(O)cc3)c2n1 | 15.9 | 9.52 | 7.68 | 
5 | CCCSc1nc(N/N=C(\C)c2ccccc2)c2nnn(Cc3ccccc3)c2n1 | 32.2 | 32.1 | 25.4 | 
6 | C#CCSc1nc(N/N=C/c2ccc(N(C)C)cc2)c2nnn(Cc3ccccc3)c2n1 | 31.2 | > 64 | 7.62 | 
7 | CCCSc1nc(N/N=C(\C)c2ccccc2O)c2nnn(Cc3ccc(F)cc3)c2n1 | 21.9 | > 64 | 11 | 
8 | CCCSc1nc(N/N=C(\C)c2ccccc2O)c2nnn(Cc3ccccc3)c2n1 | 11.1 | 11 | 2.31 | IC50 [6]: 32.3 µM
9 | CCCSc1nc(N/N=C(\C)c2ccccc2O)c2nnn(CCO)c2n1 | 60.3 | > 64 | 47.1 | 
10 | C#CCSc1nc(N/N=C/c2c(O)ccc3ccccc23)c2nnn(Cc3ccccc3)c2n1 | 6.52 | 8.97 | 10.5 | 
11 | CCCSc1nc(N/N=C(\C)c2ccccc2O)c2nnn(Cc3cccc(Cl)c3)c2n1 | 13 | 39.9 | 6.5 | 
12 | CCCSc1nc(N/N=C/c2ccc(Br)cc2)c2nnn(Cc3ccccc3)c2n1 | > 64 | > 64 | 34.9 | 
13 | CCCSc1nc(N/N=C/c2cccc(Cl)c2)c2nnn(Cc3ccccc3)c2n1 | > 64 | > 64 | > 64 | 
14 | CCCSc1nc(N/N=C/c2ccc([N+](=O)[O-])cc2)c2nnn(Cc3ccccc3)c2n1 | 6.64 | 11 | 10.1 | 
15 | O=c1[nH]cc(F)c(=O)[nH]1 [FLUOROURACIL] | 10.6 | 9.25 | 7.35 | 
16 | COc1cc(/C=N/Nc2nc(SCc3ccccc3)nc3c2nnn3Cc2ccccc2)cc(OC)c1OC | 4.4 | 13.5 | 1.32 | IC50 [6]: 48.3 µM
17 | CCCSc1nc(N/N=C(\C)c2ccccc2O)c2nnn(Cc3ccccc3Cl)c2n1 | > 64 | > 64 | 35 | 
18 | C#CCSc1nc(N/N=C/c2cc(OC)c(OC)c(OC)c2)c2nnn(Cc3ccccc3)c2n1 | 6.54 | 17 | 4.67 | IC50 [6]: 25.6 µM

Row | Compound | IC50 [9] [µM] | IC50 [15] [µM] | IC50 [22] [µM] | other results
19 | CCCSc1nc(N/N=C/c2c[nH]c3ccccc23)c2nnn(Cc3ccccc3)c2n1 | 8.69 | 9.01 | 7.41 | 
20 | CCCSc1nc(N/N=C(\C)c2ccccc2O)c2nnn(Cc3ccco3)c2n1 | 5.76 | 29 | 4.76 | IC50 [6]: 33.3 µM
21 | CCCSc1nc(N/N=C(\C)c2ccccc2O)c2nnn(Cc3ccc(Cl)cc3)c2n1 | 11.2 | 42.6 | 7.1 | 
22 | CCCSc1nc(N/N=C/c2cccs2)c2nnn(Cc3ccccc3)c2n1 | > 64 | > 64 | > 64 | 
23 | CCCSc1nc(N/N=C(\C)c2ccc(OC)cc2)c2nnn(Cc3ccccc3)c2n1 | > 64 | > 64 | 44.3 | 
24 | CCCSc1nc(N/N=C/c2c(O)ccc3ccccc23)c2nnn(Cc3ccccc3)c2n1 | 9.29 | 6.4 | 3.71 | IC50 [6]: 13.1 µM
25 | CCCSc1nc(N/N=C/c2cc(OC)c(OC)c(OC)c2)c2nnn(Cc3ccccc3)c2n1 | 4.06 | > 64 | 9.41 | IC50 [6]: > 64 µM
26 | CCCSc1nc(N/N=C(\C)c2ccccc2O)c2nnn(CCc3cccs3)c2n1 | 30.9 | > 64 | 16.4 | 
27 | CCCSc1nc(N/N=C/c2ccc(N(C)C)cc2)c2nnn(Cc3ccccc3)c2n1 | 20 | 12.2 | 13.1 | 
28 | CCCSc1nc(N/N=C(\C)c2ccc(O)cc2)c2nnn(Cc3ccccc3)c2n1 | 32.5 | 21.6 | 16.7 | 
29 | CCCSc1nc(N/N=C/c2cccnc2)c2nnn(Cc3ccccc3)c2n1 | > 64 | 58.7 | 38.1 | 
30 | CCCSc1nc(N/N=C/c2ccc3ccccc3c2)c2nnn(Cc3ccccc3)c2n1 | > 64 | > 64 | > 64 | 
31 | CCCSc1nc(N/N=C(\C)c2ccccc2O)c2nnn(Cc3ccc(Br)cc3)c2n1 | 36.1 | 15.6 | 11.3 | 
32 | CCCSc1nc(N/N=C/c2ccccc2)c2nnn(Cc3ccccc3)c2n1 | > 64 | > 64 | > 64 | 
33 | CCCSc1nc(N/N=C/c2ccc(C)cc2)c2nnn(Cc3ccccc3)c2n1 | > 64 | > 64 | > 64 | 
34 | CCCSc1nc(N/N=C/c2ccccc2Cl)c2nnn(Cc3ccccc3)c2n1 | 6.18 | 13.8 | 10.9 | 
35 | C#CCSc1nc(N/N=C(\C)c2ccccc2O)c2nnn(Cc3ccccc3)c2n1 | 5.25 | 11.2 | 3.82 | 
36 | CCCSc1nc(N/N=C(\C)c2ccc(Br)cc2)c2nnn(Cc3ccccc3)c2n1 | 4.67 | 13 | 6.02 | 
